Our source for the MIC values is ChEMBL document CHEMBL1142959, “Semisynthetic approaches to laspartomycin analogues” (2007).

≈ marks a conversion by molar mass, not a printed value. Positions of bridges follow the written chain, without caps; N, C: chain ends. Non-standard residues stand in square brackets, D forms with d. Residues, ends and D or L forms follow the SMILES beside them. *: point of attachment. Lauroyl = CCCCCCCCCCCC(=O)*; Pip = O=C(O)[C@@H]1CCCCN1; Dap = NC[C@H](N)C(=O)O Some results are limits rather than exact numbers.

What all share (assay type): functional
Test [1] has as its system Staphylococcus aureus. Nature of the test: Antimicrobial activity against methicillin-sensitive Staphylococcus aureus Smith ATCC 19636 by tube dilution method.
Test [2] deals with Staphylococcus epidermidis. Nature of the test: Antimicrobial activity against methicillin-resistant Staphylococcus epidermidis ATCC 51625 by broth microdilution method.
Test [3] concerns Enterococcus faecalis. Description: Antimicrobial activity against vancomycin-sensitive Enterococcus faecalis ATCC 29212 by broth microdilution method.
Test [4] deals with Staphylococcus aureus. Nature of the test: Antimicrobial activity against methicillin-resistant Staphylococcus aureus ATCC 43300 by broth microdilution method.
Test [5] relates to Staphylococcus aureus. Nature of the test: Antimicrobial activity against vancomycin-intermediate Staphylococcus aureus CDC HIP 5836 by broth microdilution method.
For test [6], the system named is Enterococcus faecium. Nature of the test: Antimicrobial activity against vancomycin/multidrug-resistant Enterococcus faecium ATCC 51559 by broth microdilution method.
For test [7], the system named is Staphylococcus aureus. Nature of the test: Antimicrobial activity against methicillin-sensitive Staphylococcus aureus Smith ATCC 19636 by broth microdilution method.
[8] abbreviates: Staphylococcus aureus, Smith, read-out: MIC.

As to `CCCCCCCCCCCCCCC(=O)N[C@@H](CC(=O)O)C(=O)N[C@H]1CNC(=O)[C@@H]2CCCN2C(=O)[C@H]([C@H](C)CC)NC(=O)[C@H]([C@@H](C)O)NC(=O)CNC(=O)[C@H](CC(=O)O)NC(=O)CNC(=O)[C@H](CC(=O)O)NC(=O)CNC(=O)[C@@H]2CCCCN2C1=O`, the MIC in test [1] is over 128 µg/mL. The same measure, in the same setting: the value for `CCCCCCCCCCCCCCC(=O)N[C@@H](Cc1c[nH]c2ccccc12)C(=O)N[C@@H](CC(=O)O)C(=O)N[C@H]1CNC(=O)[C@@H]2CCCN2C(=O)[C@H]([C@H](C)CC)NC(=O)[C@H]([C@@H](C)O)NC(=O)CNC(=O)[C@H](CC(=O)O)NC(=O)CNC(=O)[C@H](CC(=O)O)NC(=O)CNC(=O)[C@@H]2CCCCN2C1=O` was 16 µg/mL (≈ 11.1 µM).

Take `CCCCCCCCCCCCCCCCNC(=O)N[C@@H](CC(N)=O)C(=O)N[C@H]1CNC(=O)[C@@H]2CCCN2C(=O)[C@H]([C@H](C)CC)NC(=O)[C@H]([C@@H](C)O)NC(=O)CNC(=O)[C@H](CC(=O)O)NC(=O)CNC(=O)[C@H](CC(=O)O)NC(=O)CNC(=O)[C@@H]2CCCCN2C1=O`: the MIC in test [1] (setting [8]) is 2 µg/mL (≈ 1.55 µM). `CCCCCCCCCCCCCCNC(=O)N[C@@H](Cc1ccccc1)C(=O)N[C@@H](CC(N)=O)C(=O)N[C@H]1CNC(=O)[C@@H]2CCCN2C(=O)[C@H]([C@H](C)CC)NC(=O)[C@H]([C@@H](C)O)NC(=O)CNC(=O)[C@H](CC(=O)O)NC(=O)CNC(=O)[C@H](CC(=O)O)NC(=O)CNC(=O)[C@@H]2CCCCN2C1=O`: the MIC in test [2] turned out to be 4 µg/mL (≈ 2.84 µM); in test [3], 2 µg/mL (≈ 1.42 µM); in test [4] it was 4 µg/mL (≈ 2.84 µM); in test [5], 8 µg/mL (≈ 5.67 µM); in test [6], 8 µg/mL (≈ 5.67 µM); in test [1] (setting [8]), 4 µg/mL (≈ 2.84 µM). This compound came in with an MIC in test [7] of 4 µg/mL (≈ 2.84 µM).

On to `CCCCCCCCCCCCOC(=O)N[C@@H](CC(N)=O)C(=O)N[C@H]1CNC(=O)[C@@H]2CCCN2C(=O)[C@H]([C@H](C)CC)NC(=O)[C@H]([C@@H](C)O)NC(=O)CNC(=O)[C@H](CC(=O)O)NC(=O)CNC(=O)[C@H](CC(=O)O)NC(=O)CNC(=O)[C@@H]2CCCCN2C1=O`, for which, in test [1] (setting [8]), the MIC is 8 µg/mL (≈ 6.47 µM). For `CCCCCCCCCCCCS(=O)(=O)N[C@@H](CC(N)=O)C(=O)N[C@H]1CNC(=O)[C@@H]2CCCN2C(=O)[C@H]([C@H](C)CC)NC(=O)[C@H]([C@@H](C)O)NC(=O)CNC(=O)[C@H](CC(=O)O)NC(=O)CNC(=O)[C@H](CC(=O)O)NC(=O)CNC(=O)[C@@H]2CCCCN2C1=O`, the minimum inhibitory concentration (MIC) in test [1] (setting [8]) was determined as 16 µg/mL (≈ 12.7 µM).

For `CCCCCCCCCC(=O)N[C@@H](Cc1c[nH]c2ccccc12)C(=O)N[C@@H](CC(=O)O)C(=O)N[C@H]1CNC(=O)[C@@H]2CCCN2C(=O)[C@H]([C@H](C)CC)NC(=O)[C@H]([C@@H](C)O)NC(=O)CNC(=O)[C@H](CC(=O)O)NC(=O)CNC(=O)[C@H](CC(=O)O)NC(=O)CNC(=O)[C@@H]2CCCCN2C1=O`, the MIC in test [1] (setting [8]) was over 64 µg/mL. On to `CCCCCCCCCCCCCCCCS(=O)(=O)N[C@@H](Cc1ccccc1)C(=O)N[C@@H](CC(=O)O)C(=O)N[C@H]1CNC(=O)[C@@H]2CCCN2C(=O)[C@H]([C@H](C)CC)NC(=O)[C@H]([C@@H](C)O)NC(=O)CNC(=O)[C@H](CC(=O)O)NC(=O)CNC(=O)[C@H](CC(=O)O)NC(=O)CNC(=O)[C@@H]2CCCCN2C1=O`, for which the MIC was 4 µg/mL (≈ 2.74 µM) in test [2]; 2 µg/mL (≈ 1.37 µM) in test [3]; 8 µg/mL (≈ 5.48 µM) in test [4]; over 64 µg/mL in test [5]; 4 µg/mL (≈ 2.74 µM) in test [6]; 4 µg/mL (≈ 2.74 µM) in test [1] (setting [8]). Further, the minimal inhibitory concentration (MIC) in test [7] was over 64 µg/mL. On to `CCCCCCCCCCCCCCCCS(=O)(=O)N[C@@H](Cc1c[nH]c2ccccc12)C(=O)N[C@@H](CC(=O)O)C(=O)N[C@H]1CNC(=O)[C@@H]2CCCN2C(=O)[C@H]([C@H](C)CC)NC(=O)[C@H]([C@@H](C)O)NC(=O)CNC(=O)[C@H](CC(=O)O)NC(=O)CNC(=O)[C@H](CC(=O)O)NC(=O)CNC(=O)[C@@H]2CCCCN2C1=O`, for which the MIC in test [1] (setting [8]) turned out to be 4 µg/mL (≈ 2.67 µM). Still for that read-out and setting: the value for `CCCCCCCCCCCCCCCCS(=O)(=O)N[C@@H](Cc1c[nH]c2ccccc12)C(=O)N[C@H]1CNC(=O)[C@@H]2CCCN2C(=O)[C@H]([C@H](C)CC)NC(=O)[C@H]([C@@H](C)O)NC(=O)CNC(=O)[C@H](CC(=O)O)NC(=O)CNC(=O)[C@H](CC(=O)O)NC(=O)CNC(=O)[C@@H]2CCCCN2C1=O` was over 64 µg/mL; that for `CCCCCCCCCCCC(=O)N[C@@H](Cc1c[nH]c2ccccc12)C(=O)N[C@@H](CC(N)=O)C(=O)N[C@H]1CNC(=O)[C@@H]2CCCN2C(=O)[C@H]([C@@H](C)CC)NC(=O)[C@H]([C@@H](C)O)NC(=O)CNC(=O)[C@H](CC(=O)O)NC(=O)CNC(=O)[C@H](CC(=O)O)NC(=O)CNC(=O)[C@@H]2CCCCN2C1=O` (Lauroyl-WN[Dap][Pip]GDGDGTIP; lactam 3-C) was 8 µg/mL (≈ 5.74 µM). Same read-out and setting: the result for `CCCCCCCCCC(=O)N[C@@H](CC(=O)O)C(=O)N[C@H]1CNC(=O)[C@@H]2CCCN2C(=O)[C@H]([C@H](C)CC)NC(=O)[C@H]([C@@H](C)O)NC(=O)CNC(=O)[C@H](CC(=O)O)NC(=O)CNC(=O)C(CC(=O)O)NC(=O)CNC(=O)[C@@H]2CCCCN2C1=O` (single isomer, unassigned) reads over 64 µg/mL. For `CCCCCCCCCCc1ccc(C(=O)N[C@@H](CC(=O)O)C(=O)N[C@H]2CNC(=O)[C@@H]3CCCN3C(=O)[C@H]([C@H](C)CC)NC(=O)[C@H]([C@@H](C)O)NC(=O)CNC(=O)[C@H](CC(=O)O)NC(=O)CNC(=O)C(CC(=O)O)NC(=O)CNC(=O)[C@@H]3CCCCN3C2=O)cc1` (single isomer, unassigned), the MIC in test [1] (setting [8]) is 1 µg/mL (≈ 0.788 µM).

For the compound `CCCCCCCCCCCCc1ccc(C(=O)N[C@@H](CC(=O)O)C(=O)N[C@H]2CNC(=O)[C@@H]3CCCN3C(=O)[C@H]([C@H](C)CC)NC(=O)[C@H]([C@@H](C)O)NC(=O)CNC(=O)[C@H](CC(=O)O)NC(=O)CNC(=O)C(CC(=O)O)NC(=O)CNC(=O)[C@@H]3CCCCN3C2=O)cc1` (single isomer, unassigned), the MIC in test [1] (setting [8]) was determined as 2 µg/mL (≈ 1.54 µM). On the same count and under the same terms, the value for `CC[C@@H](C)[C@@H]1NC(=O)[C@H]([C@@H](C)O)NC(=O)CNC(=O)[C@H](CC(=O)O)NC(=O)CNC(=O)C(CC(=O)O)NC(=O)CNC(=O)[C@@H]2CCCCN2C(=O)[C@@H](NC(=O)[C@H](CC(=O)O)NC(=O)CCCCCCCCCCOc2ccccc2)CNC(=O)[C@@H]2CCCN2C1=O` (single isomer, unassigned) was over 64 µg/mL; that for `CCCCCCCCCCCCCCC(=O)N[C@@H](Cc1c[nH]c2ccccc12)C(=O)N[C@@H](CC(=O)O)C(=O)N[C@H]1CNC(=O)[C@@H]2CCCN2C(=O)[C@H]([C@H](C)CC)NC(=O)[C@H]([C@@H](C)O)NC(=O)CNC(=O)[C@H](CC(=O)O)NC(=O)CNC(=O)C(CC(=O)O)NC(=O)CNC(=O)[C@@H]2CCCCN2C1=O` (single isomer, unassigned) was 8 µg/mL (≈ 5.57 µM).

On to `CCCCCCCCCCCCCCC(=O)N[C@@H](Cc1c[nH]c2ccccc12)C(=O)N[C@H](CC(=O)O)C(=O)N[C@H]1CNC(=O)[C@@H]2CCCN2C(=O)[C@H]([C@H](C)CC)NC(=O)[C@H]([C@@H](C)O)NC(=O)CNC(=O)[C@H](CC(=O)O)NC(=O)CNC(=O)C(CC(=O)O)NC(=O)CNC(=O)[C@@H]2CCCCN2C1=O` (single isomer, unassigned), for which the MIC in test [1] (setting [8]) is over 64 µg/mL.

Turning to `CCCCCCCCCCCCCCC(=O)N[C@H](Cc1ccccc1)C(=O)N[C@@H](CC(=O)O)C(=O)N[C@H]1CNC(=O)[C@@H]2CCCN2C(=O)[C@H]([C@H](C)CC)NC(=O)[C@H]([C@@H](C)O)NC(=O)CNC(=O)[C@H](CC(=O)O)NC(=O)CNC(=O)C(CC(=O)O)NC(=O)CNC(=O)[C@@H]2CCCCN2C1=O` (single isomer, unassigned), the MIC in test [1] (setting [8]) stood at 4 µg/mL (≈ 2.86 µM). Still for that read-out and setting: the result for `CCCCCCCCCCCCCCC(=O)NCC(=O)N[C@@H](CC(=O)O)C(=O)N[C@H]1CNC(=O)[C@@H]2CCCN2C(=O)[C@H]([C@H](C)CC)NC(=O)[C@H]([C@@H](C)O)NC(=O)CNC(=O)[C@H](CC(=O)O)NC(=O)CNC(=O)C(CC(=O)O)NC(=O)CNC(=O)[C@@H]2CCCCN2C1=O` (single isomer, unassigned) reads over 64 µg/mL.

Consider `CCCCCCCCCCCCCCC(=O)N[C@@H](C)C(=O)N[C@@H](CC(=O)O)C(=O)N[C@H]1CNC(=O)[C@@H]2CCCN2C(=O)[C@H]([C@H](C)CC)NC(=O)[C@H]([C@@H](C)O)NC(=O)CNC(=O)[C@H](CC(=O)O)NC(=O)CNC(=O)C(CC(=O)O)NC(=O)CNC(=O)[C@@H]2CCCCN2C1=O` (single isomer, unassigned), for which, in test [1] (setting [8]), the MIC is over 64 µg/mL. Regarding `CCCCCCCCCCCCCCC(=O)N[C@@H](CCCCN)C(=O)N[C@@H](CC(=O)O)C(=O)N[C@H]1CNC(=O)[C@@H]2CCCN2C(=O)[C@H]([C@H](C)CC)NC(=O)[C@H]([C@@H](C)O)NC(=O)CNC(=O)[C@H](CC(=O)O)NC(=O)CNC(=O)C(CC(=O)O)NC(=O)CNC(=O)[C@@H]2CCCCN2C1=O` (single isomer, unassigned), the MIC in test [1] (setting [8]) was determined as 16 µg/mL (≈ 11.6 µM). As to `CCCCCCCCCCCCCCC(=O)N[C@H]1CNC(=O)[C@@H]2CCCN2C(=O)[C@H]([C@H](C)CC)NC(=O)[C@H]([C@@H](C)O)NC(=O)CNC(=O)[C@H](CC(=O)O)NC(=O)CNC(=O)C(CC(=O)O)NC(=O)CNC(=O)[C@@H]2CCCCN2C1=O` (single isomer, unassigned), the MIC in test [1] (setting [8]) is over 64 µg/mL. Regarding `CCCCCCCCCCCCCCC(=O)N[C@@H](CCC(=O)O)C(=O)N[C@H]1CNC(=O)[C@@H]2CCCN2C(=O)[C@H]([C@H](C)CC)NC(=O)[C@H]([C@@H](C)O)NC(=O)CNC(=O)[C@H](CC(=O)O)NC(=O)CNC(=O)C(CC(=O)O)NC(=O)CNC(=O)[C@@H]2CCCCN2C1=O` (single isomer, unassigned), the MIC in test [1] (setting [8]) worked out at 64 µg/mL (≈ 50.7 µM). Consider `CC[C@@H](C)[C@@H]1NC(=O)[C@H]([C@@H](C)O)NC(=O)CNC(=O)[C@H](CC(=O)O)NC(=O)CNC(=O)[C@H](CC(=O)O)NC(=O)CNC(=O)[C@@H]2CCCCN2C(=O)[C@@H](NC(=O)[C@H](CC(=O)O)NC(=O)/C=C/CCCCCCCCCC(C)C)CNC(=O)[C@@H]2CCCN2C1=O` [LASPARTOMYCIN C], for which the MIC in test [1] (setting [8]) came out at 2 µg/mL (≈ 1.6 µM).
